In assay [1] the target is Sigma non-opioid intracellular receptor 1 (Cavia porcellus, UniProt Q60492).
Assay [2] can be described thus: Displacement of [3H]DTG from sigma2 receptor in Sprague-Dawley rat liver membrane after 150 mins by liquid scintillation counting analysis. It counts as cell membranes.
The nature of assay [3]: Binding affinity to sigma receptor (unknown origin). Also on record: species or system Homo sapiens.

What is called Ki is the equilibrium dissociation constant of an inhibitor or competing ligand from its target. A higher Ki goes with weaker binding.

Sequence of Sigma non-opioid intracellular receptor 1 (Q60492 whole entry): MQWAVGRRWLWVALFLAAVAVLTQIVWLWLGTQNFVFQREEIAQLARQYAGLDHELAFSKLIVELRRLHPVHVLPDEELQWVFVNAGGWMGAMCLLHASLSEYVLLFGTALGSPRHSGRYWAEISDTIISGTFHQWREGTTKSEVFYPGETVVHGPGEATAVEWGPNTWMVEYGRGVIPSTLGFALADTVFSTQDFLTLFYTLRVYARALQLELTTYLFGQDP

For `O=S(=O)(Cc1ccccc1)N1CCN(Cc2ccccc2)CC1`, the inhibition constant Ki in assay [1] amounted to 0.0112 µM; in assay [2], 0.0484 µM.
Regarding `O=S(=O)(/C=C/c1ccccc1)N1CCN(Cc2ccccc2)CC1`, the values for the Ki in assay [1] and in assay [2] were 0.201 µM and 8.14 µM, respectively.
As for `O=S(=O)(Cc1ccccc1)N1CCN(Cc2ccc(Br)cc2)CC1`, the Ki in assay [1] was 0.0134 µM; in assay [2], 0.288 µM.
In turn, `c1ccc(CN2CCN(Cc3ccccc3)CC2)cc1` displayed a Ki in assay [2] of 1.27 µM.
With `c1ccc(CCCN2CCC(Cc3ccccc3)CC2)cc1`, the Ki in assay [1] was determined as 0.0004 µM; in assay [2] it was 0.0033 µM.
As to `OC[C@@H]1CN(CCc2ccccc2)CCN1Cc1ccccc1`, the Ki in assay [1] was 0.038 µM; in assay [2] it was 0.177 µM.
As to `Clc1ccc(/C=C/CN2CCN(Cc3ccccc3)CC2)cc1`, the affinity in assay [3], expressed as Ki, was 0.0003 µM.
In the case of `O=S(=O)(Cc1cccc(Cl)c1)N1CCN(Cc2ccccc2)CC1`, the figures for the Ki in assay [1] and in assay [2] were 0.0681 µM and 0.134 µM, respectively.
For the compound `O=S(=O)(Cc1cccc(Br)c1)N1CCN(Cc2ccccc2)CC1`, the Ki in assay [1] came to 0.0299 µM; in assay [2] it was 0.148 µM.
For `O=S(=O)(Cc1cccc(I)c1)N1CCN(Cc2ccccc2)CC1`, in that order: 0.0027 µM and 0.0888 µM.
Turning to `Cc1cccc(CS(=O)(=O)N2CCN(Cc3ccccc3)CC2)c1`, the Ki in assay [1] was 0.0359 µM; in assay [2], 0.0894 µM.
For `O=S(=O)(Cc1ccccc1)N1CCN(Cc2cccc(F)c2)CC1`, in that order: 0.0687 µM and 0.181 µM.
The corresponding values for `O=S(=O)(Cc1ccccc1)N1CCN(Cc2cccc(Cl)c2)CC1` are 0.0518 µM and 0.174 µM.
For the compound `O=S(=O)(Cc1ccccc1)N1CCN(Cc2cccc(I)c2)CC1`, the Ki in assay [1] is 0.0018 µM; in assay [2], 0.117 µM.
Turning to `Cc1cccc(CN2CCN(S(=O)(=O)Cc3ccccc3)CC2)c1`, the Ki in assay [1] stood at 0.015 µM; in assay [2] it was 0.151 µM.
For `COc1ccc(CN2CCN(S(=O)(=O)Cc3ccccc3)CC2)cc1`, in that order: 0.192 µM and 2.13 µM.
Take `O=S(=O)(Cc1ccccc1)N1CCC(Cc2ccccc2)CC1`: the Ki in assay [1] amounted to 0.0099 µM; in assay [2], 0.0389 µM.
With `O=S(=O)(Cc1cccc(Cl)c1)N1CCC(Cc2ccccc2)CC1`, the values for the Ki in assay [1] and in assay [2] were 0.04 µM and 0.199 µM, respectively.
As for `O=S(=O)(Cc1cccc(Br)c1)N1CCC(Cc2ccccc2)CC1`, the Ki in assay [1] came to 0.0016 µM; in assay [2] it was 0.0259 µM.
Regarding `O=S(=O)(Cc1cccc(I)c1)N1CCC(Cc2ccccc2)CC1`, the Ki in assay [1] amounted to 0.00096 µM; in assay [2], 0.0918 µM.
The corresponding values for `Cc1cccc(CS(=O)(=O)N2CCC(Cc3ccccc3)CC2)c1` are 0.0047 µM and 0.0489 µM.
Consider `O=S(=O)(c1ccccc1)N1CCC(Cc2ccccc2)CC1`, for which the figures for the Ki in assay [1] and in assay [2] were 0.0243 µM and 0.0567 µM, respectively.
With `O=S(=O)(c1ccc(Cl)cc1)N1CCC(Cc2ccccc2)CC1`, the Ki in assay [1] worked out at 0.551 µM; in assay [2], 0.778 µM.
As to `O=S(=O)(c1ccc(Cl)cc1)N1CCN(Cc2ccccc2)CC1`, the inhibition constant Ki in assay [1] was 0.969 µM; in assay [2] it was 1.55 µM.
For the compound `O=S(=O)(CCc1ccccc1)N1CCC(Cc2ccccc2)CC1`, the Ki in assay [2] worked out at 0.187 µM.
As to `O=S(=O)(CCc1ccccc1)N1CCN(Cc2ccccc2)CC1`, the Ki was 0.0784 µM in assay [1] and 0.191 µM in assay [2].
For `O=S(=O)(/C=C/c1ccccc1)N1CCC(Cc2ccccc2)CC1`, in that order: 0.138 µM and 1.97 µM.
Consider `O=S(=O)(/C=C/c1ccc(Br)cc1)N1CCC(Cc2ccccc2)CC1`, for which the Ki in assay [1] turned out to be 0.843 µM; in assay [2], 0.248 µM.
Regarding `O=S(=O)(/C=C/c1ccc(Br)cc1)N1CCN(Cc2ccccc2)CC1`, the figures for the Ki in assay [1] and in assay [2] were 1.07 µM and 0.485 µM, respectively.
Regarding `O=S(=O)(c1ccccc1)N1CCN(Cc2ccccc2)CC1`, the Ki in assay [1] was found to be 0.0284 µM; in assay [2] it was 0.0871 µM.
The compound `c1ccc(CCCN2CCN(Cc3ccccc3)CC2)cc1` returned a Ki in assay [1] of 0.02 µM.
As for `CC(C)=CCN1CC[C@]2(C)c3cc(O)ccc3C[C@H]1[C@H]2C` [(+)-PENTAZOCINE], the affinity in assay [2], expressed as Ki, was 1.87 µM.
Still for that read-out and setting: the figure for `Cc1ccccc1NC(=N)Nc1ccccc1C` [DITOLYLGUANIDINE] is 0.0584 µM; for `O=C(CCCN1CCC(O)(c2ccc(Cl)cc2)CC1)c1ccc(F)cc1` [HALOPERIDOL] it is 0.0435 µM.

The values above are taken from ChEMBL document CHEMBL2390940, “Synthesis and receptor binding studies of novel 4,4-disubstituted arylalkyl/arylalkylsulfonyl piperazine and piperidine-based derivatives as a new class of σ1 ligands” (Eur J Med Chem, 2013).
